Experimental data taken from article PMC4117768, “Conjugation with polyamines enhances the antibacterial and anticancer activity of chloramphenicol” (Nucleic Acids Research, 2014).
Where two headings read alike, the source gives them in different places. Marks after values point to notes of the source that are not given here.

Experiments:
[1] = test system: E. coli (A2058G) TA531 cells with pKK35 plasmid, mutated 23S rRNA; test: Growth inhibition of bacterial cell cultures, CAM-resistant mutant; format: cell-based; conditions: Escherichia coli, read-out: IC50 (inhibit the growth by half)
Source text: (§1) CAM free base [D-(-)threo-1-(p-nitrophenyl)-2-amino-1,3-propanediol], puromycin dihydrochloride, tRNA^Phe from E. coli, dimethyl sulfate (DMS), DMS stop solution and tRNA^Phe from E. coli were purchased from Sigma-Aldrich. Kethoxal and 1-cyclohexyl-3-(2-morpholinoethyl)-carbodiimide metho-p-toluene sulfate (CMCT) were from MP Biomedicals and Fluka Biochemicals, respectively. AMV reverse transcriptase was supplied by Roche, dNTPs by HT Biotechnology, and ddNTPs by Jena Bioscience. L-[2,3,4,5,6 -^3H]Phenylalanine was from Amersham Biosciences and [α-^32P]ATP from Izotop. Cellulose nitrate filters (type HA; 0.45 μm pore size) were from Millipore Corp. Details in experimental procedures of synthesis and physical and spectra data for the synthesized compounds will be published elsewhere. […] The mesothelioma cell line ZL34 and its immortalized counterpart cell line Met5A, were kindly provided by Prof. G. Stathopoulos (University of Patras).
(§2) S. aureus or E. coli cells (400 μl of a 0.700 OD560 preculture) containing wild-type or mutant ribosomes were added in 3.6 ml of LB (Luria Broth) medium and grown at 37°C in the presence or absence of CAM or PA–CAM conjugates until the optical density of the control culture (grown in the absence of drug) reached the value 0.700 at 560 nm. From the growth curves, the IC50 value for each strain was estimated as the concentration of the drug that is required to inhibit the growth by half.

[2] = test system: E. coli (A2503C) TA531 cells with pKK35 plasmid, mutated 23S rRNA; test: as above; format: cell-based; conditions: Escherichia coli, read-out: IC50 (inhibit the growth by half)
Source text: as §1, §2

wild-type E. coli = test: Growth inhibition of bacterial cell cultures; format: cell-based; conditions: for IC50: Escherichia coli, read-out: IC50 (inhibit the growth by half); for IC50/IC50(puro): wild-type E. coli, IC50(puro) = concentration causing 50% inhibition in peptide-bond formation at 2 mM puromycin
Description: as §2

wild-type S. aureus = test: Growth inhibition of bacterial cell cultures; format: cell-based; conditions: Staphylococcus aureus, read-out: IC50 (inhibit the growth by half)
Description: as §2

[3] = test system: complex C (poly(U)-programmed ribosomes from E. coli bearing Ac[3H]Phe-tRNA at the P-site), peptidyl transferase; test: Inhibition of AcPhe-puromycin synthesis (puromycin reaction, peptide bond formation); format: biochemical; conditions: for Ki: 25°C, buffer A; for koff: isomerization C*I to CI, non linear regression fitting; for potency relative to CAM, based on Kik7/(k6 + k7): overall two-step inhibition of the puromycin reaction
Description: Isolation of 70S ribosomes from E. coli K12 cells and preparation of Ac[^3H]Phe-tRNA^Phe charged to 80% were performed, as described previously ([23]). The post-translocation complex of poly(U)-programmed ribosomes (complex C), bearing tRNA^Phe at the E-site and Ac[^3H]Phe-tRNA at the P-site was prepared in buffer A (100 mM Tris-HCl pH 7.2, 6 mM (CH3COO)2Mg, 100 mM NH4Cl and 6 mM 2-mercaptoethanol). The percentage of active ribosomes in AcPhe-tRNA binding was 72%. This ribosomal population was more than 90% reactive toward puromycin.
The reaction between complex C and excess puromycin (S), a pseudo-substrate which binds to the ribosomal A-site, was performed at 25°C in buffer A and analyzed as described in detail elsewhere ([11]). Briefly, since the reaction followed first-order kinetics, the first-order rate constant kobs at each concentration of puromycin was determined by fitting the corrected x-values into Equation ([1]), (1) where x is the product Ac[^3H]Phe-puromycin expressed as the percentage of complex C radioactivity added in the reaction mixture and t the time of the reaction. kobs is related to the puromycin concentration, [S], by the relationship, (2) where kcat is the catalytic rate constant of PTase and KS the affinity constant of puromycin for complex C.
In the presence of CAM–polyamine conjugates, biphasic logarithmic time plots were obtained. The slope of the straight line through the origin was taken as the value of the apparent rate constant, kobs(early), at the early phase of the reaction, while the slope of the second straight line was taken as the value of the rate constant, kobs(late), at the late phase of the reaction.

[4] = test system: central loop of Domain V of 23S rRNA, E. coli ribosomes; test: Time-resolved footprinting of PA–CAM conjugates bound to ribosomes (DMS, kethoxal, CMCT probing, primer extension); format: binding
Description: Complexes RI and R*I were then probed at 37°C for 10 min with DMS, kethoxal or CMCT, as described previously ([30]). The modified sites in 23S rRNA were then analyzed by primer extension with reverse transcriptase, according to Moazed et al. ([30]). […] Extension products were run on 6% polyacrylamide/7M urea gels. Identification of the modified nucleotides, quantitative scanning of the gels and normalization of the band intensities were made as previously described ([4]). The values indicated in Table 2 denote the ratio between the normalized intensity of a band of interest and the normalized intensity of the corresponding band in the control lane (ribosomes non-treated with drugs).

[5] = early phase of the reaction (encounter complex CI)
[6] = late phase of the reaction (complex C*I)
[7] = R*I binding state (3 min), conjugate at 50 × Ki, 25°C, ratio to control lane R
[8] = RI binding state (2 s), conjugate at 50 × Ki, 25°C, ratio to control lane R

Row | SMILES | IC50 [1] [µM] | IC50 [2] [µM] | IC50 (wild-type E. coli) [µM] | IC50/IC50(puro) (wild-type E. coli) | IC50 (wild-type S. aureus) [µM] | Ki [3, 5] [µM] | koff [3] [s⁻¹] | Ki [3, 6] [µM] | potency relative to CAM, based on Kik7/(k6 + k7) [3] | also measured
1 | NCCCCNC(=O)CCC(=O)N[C@H](CO)[C@H](O)c1ccc([N+](=O)[O-])cc1 [Compound 1] | > 200 | > 200 | > 200 | >37.0 | > 200 | 3.37 ± 0.3 | 0.0175 ± 0.00167 | 0.9 ± 0.06 | equal | 
2 | O=C(CCNC(=O)c1nc[nH]n1)N[C@H](CO)[C@H](O)c1ccc([N+](=O)[O-])cc1 [Compound 9] | > 200 | > 200 | > 200 | >8.3 | 66 ± 4.6 | 12 ± 1.08 | 0.014 ± 0.0013 | 4 ± 0.44 | lower potency | 
3 | NCCCCN(CCCN)C(=O)CCC(=O)N[C@H](CO)[C@H](O)c1ccc([N+](=O)[O-])cc1 [Compound 3] | > 150 | > 150 | > 150 | >20.8 | 12.7 ± 1 | 3.6 ± 0.3 | 0.021 ± 0.00217 | 1.2 ± 0.1 | lower potency | protection of U2585 against CMCT (footprinting) ([4]; 2 s or 3 min incubation, Supplementary Figure S6): fails to detect a similar protection
4 | O=C(CCC(=O)N[C@H](CO)[C@H](O)c1ccc([N+](=O)[O-])cc1)NCCCNCCCCN(Cc1ccccc1)Cc1ccccc1 [Compound 5] | 32.3 ± 3 | 37.1 ± 3.1 |  | 9.86 ± 1.29 | 13.7 ± 1.2 | 2.1 ± 0.17 | 0.0148 ± 0.0013 | 0.6 ± 0.05 | 1.5 fold | Relative reactivity of nucleoside A2058 [4, 7]: 0.95 ± 0.08; Relative reactivity of nucleoside A2059 [4, 7]: 1.00 ± 0.08; Relative reactivity of nucleoside A2062 [4, 7]: 1.00 ± 0.09; Relative reactivity of nucleoside A2451 [4, 7]: 0.70 ± 0.05^b; Relative reactivity of nucleoside A2602 [4, 7]: 0.89 ± 0.07; Relative reactivity of nucleoside G2505 [4, 7]: 0.50 ± 0.15^b,c; Relative reactivity of nucleoside U2506 [4, 7]: 0.70 ± 0.06^b; Relative reactivity of nucleoside U2609 [4, 7]: 0.90 ± 0.08; Relative reactivity of nucleoside A2058 [4, 8]: 1.10 ± 0.09; Relative reactivity of nucleoside A2059 [4, 8]: 0.90 ± 0.08; Relative reactivity of nucleoside A2062 [4, 8]: 1.00 ± 0.06; Relative reactivity of nucleoside A2451 [4, 8]: 0.65 ± 0.04^b; Relative reactivity of nucleoside A2602 [4, 8]: 1.00 ± 0.06; Relative reactivity of nucleoside G2505 [4, 8]: 0.74 ± 0.06^b; Relative reactivity of nucleoside U2506 [4, 8]: 0.75 ± 0.05^b; Relative reactivity of nucleoside U2585 [4, 8]: 0.92 ± 0.10; Relative reactivity of nucleoside U2609 [4, 8]: 1.00 ± 0.10; IC50 (wild-type E. coli; WT-E. coli, LB medium, 37°C): 35.5 ± 3.6 µM
5 | NCCCCNC(=O)c1ccccc1C(=O)N[C@H](CO)[C@H](O)c1ccc([N+](=O)[O-])cc1 [Compound 6] | > 200 | > 200 | > 200 |  | > 200 | 214 ± 17.1 | 0.0125 ± 0.001 | 8.45 ± 0.67 | lower potency | 
6 | O=C(N[C@H](CO)[C@H](O)c1ccc([N+](=O)[O-])cc1)c1nc[nH]n1 [Compound 8] | > 300 | > 300 | > 300 | >50 | > 100 | 3 ± 0.3 | 0.0183 ± 0.002 | 1 ± 0.1 | equal | 
7 | NCCCNCCCCNCCCNC(=O)CCC(=O)N[C@H](CO)[C@H](O)c1ccc([N+](=O)[O-])cc1 [Compound 2] | > 100 | > 100 | > 100 | >22.2 | 45.3 ± 5.5 | 2.2 ± 0.2 | 0.0198 ± 0.00267 | 0.75 ± 0.06 | equal | 
